Measurements: patent US20240050562A1, “INHIBITOR OF CELL PROLIFERATION IN OBINUTUZUMAB RESISTANT CD20-POSITIVE CANCER, AND MEDICINAL COMPOSITION, MEDICINE, PRODUCTION, METHOD FOR INHIBITING CELL PROLIFERATION, THERAPEUTIC METHOD, TYPE II ANTI-CD20 ANTIBODY, COMPOUNDS, COMBINATION OF SAME, ENHANCER AND INDUCER, EACH RELATING THERETO” (Chugai Seiyaku Kabushiki Kaisha, priority 2019, published 2024)
Where a SMILES comes first, the peptide text is derived from it. The star is where a group is joined. Cbz = O=C(OCc1ccccc1)*; CH2F = FC*

Experiments:
[1] = test system: RL parent cell line and ADCC-tolerant cell lines RL-E300-1, RL-E300-2, RL-E300-8, RL-E300-22; experiment: ADCC sensitivity (calcein release, CD16(158V)/NK-92 effector cells); assay type: cell-based, human; settings: ET ratio 1:1
Procedure: Obinutuzumab was added at a concentration of 0.0001-100 ng/mL. CD16(158V)/NK-92 cells were added as effector cells to achieve an ET ratio of 1:1 and the cells were incubated at 37° C. for four hours. In addition, for Maximum Lysis, 1% Triton X-100 was added. After the plates were centrifuged and the supernatants were collected, calcein fluorescence was measured using a plate reader. ADCC sensitivity was assessed with the expression (measurement−background)/(Maximum Lysis−background)×100 (%).
The parent RL cell line and the tolerant cell lines were pre-cultured, with prednisolone (10 μM) added, at 37° C. for 72 hours. […] Obinutuzumab was added at a concentration of 1 ng/mL. CD16(158V)/NK-92 cells were added thereto as effector cells to achieve an ET ratio of 1:1, and the cells were incubated at 37° C. for four hours. In addition, for Maximum Lysis, 1% Triton X-100 was added. After the plates were centrifuged and the supernatants were collected, calcein fluorescence was measured using a plate reader. ADCC sensitivity was assessed with the expression (measurement−background)/(Maximum Lysis−background)×100 (%).

[2] = test system: obinutuzumab-directed cell death-tolerant clone 1D2; experiment: combined-use cell proliferation test (CellTiter-Glo 3D), clone 1D2; assay type: cell-based, human; settings: obinutuzumab 1 μg/mL + 4-hydroperoxycyclophosphamide 100 nM, doxorubicin 10 nM, vincristine 1 nM or prednisolone 1 μM, four days, <0 supra-additive, 0 additive, >0 sub-additive
Procedure: (§1) After four days of culturing at 37° C. in the presence of 5% CO2, the number of viable cells was measured using CellTiter-Glo 3D Cell Viability Assay (Promega). […] The effects of the combined use were assessed by numerical values obtained as follows: login (proportion of cell proliferation when both agents were added)—log10 (proportion of cell proliferation when obinutuzumab was added alone)—log10 (proportion of cell proliferation when the anti-cancer agent was added alone). Here, for the combined use, a numerical value of less than 0 means a supra-additive effect, 0 means an additive effect, and greater than 0 means a sub-additive effect (J Biopharm Stat. 2012; 22(3): 535-543).

[3] = test system: CD20 on RL parent and ADCC-tolerant cell lines; experiment: CD20 expression by FACS; assay type: cell-based, human; settings: prednisolone 10 μM, 72 hours; parent RL cell line and tolerant cell lines; FIG. 10
Procedure: The parent RL cell line and the tolerant cell lines were seeded at 4×10^5 cells per plate, prednisolone (10 μM) was added, and the cells were cultured at 37° C. for 72 hours. The cells were collected and stained with a control IgG antibody or an anti-CD20 antibody (BD Biosciences), and analysis of CD20 expression was carried out using FACS Fortessa (Becton Dickinson).

[4] = test system: obinutuzumab-directed cell death-tolerant clones 1A2, 1D2, 3A4 (derived from SU-DHL-4)
Procedure: The human germinal center B-cell-like diffuse large B-cell lymphoma cell line SU-DHL-4 was treated with 100 μg/mL of N-ethyl-N-nitrosourea for 24 hours to randomly introduce gene mutations. Thereafter, obinutuzumab was added to 200 μg/mL, and culturing was carried out at 37° C. in the presence of 5% CO2 for three weeks.
as §1

[5] = test system: obinutuzumab-directed cell death-tolerant clone 1A2; settings: four days; for effect of combined use with obinutuzumab (Bliss independence): log10(both agents) - log10(obinutuzumab alone) - log10(anti-cancer agent alone): obinutuzumab 1 μg/mL + 4-hydroperoxycyclophosphamide 100 nM, doxorubicin 10 nM, vincristine 1 nM or prednisolone 1 μM, <0 supra-additive, 0 additive, >0 sub-additive
Procedure: as §1
The obinutuzumab-directed cell death-tolerant clone 1A2 was seeded at 1×10^4 cells per well in 96-well plates, and obinutuzumab (0.00015-10 μg/mL) and prednisolone (0.2, 1 μM) were added. After four days of culturing at 37° C. in the presence of 5% CO2, the number of viable cells was measured using CellTiter-Glo 3D Cell Viability Assay (Promega).
(§2) After four days of culturing at 37° C. in the presence of 5% CO2, the number of viable cells was measured using CellTiter-Glo 3D Cell Viability Assay (Promega).
as §2

[6] = test system: obinutuzumab-directed cell death-tolerant clone 3A4; settings: obinutuzumab 1 μg/mL + 4-hydroperoxycyclophosphamide 100 nM, doxorubicin 10 nM, vincristine 1 nM or prednisolone 1 μM, four days, <0 supra-additive, 0 additive, >0 sub-additive
Procedure: as §1

[7] = test system: obinutuzumab-directed cell death-tolerant clone 1A2; assay type: cell-based; settings: Z-VAD-FMK 40 μM added to obinutuzumab 1 μg/mL + doxorubicin 10 nM, 72 hours, FIG. 7
Procedure: […] After 72 hours of culturing at 37° C. in the presence of 5% CO2, cells were stained with APO-BrdU TUNEL Assay Kit (Thermo Fisher).
After 72 hours of culturing at 37° C. in the presence of 5% CO2, cells were stained with APO-BrdU TUNEL Assay Kit (Thermo Fisher).

[8] = test system: SU-DHL-4; experiment: four-day cell proliferation test, parent cell line; assay type: cell-based, human; settings: SU-DHL-4, four-day cell proliferation test

**Q.** `C[C@]12C=CC(=O)C=C1CC[C@@H]1[C@@H]2[C@@H](O)C[C@@]2(C)[C@H]1CC[C@]2(O)C(=O)CO` [prednisolone] was tested. Which “ADCC sensitivity after prednisolone pre-treatment” value ([1]; prednisolone 10 μM 72 hours pre-culture, then obinutuzumab 1 ng/mL, parent and tolerant cell lines, FIG. 11) did it give?
**A.** enhances ADCC sensitivity

**Q.** What about the “effect of combined use with obinutuzumab (Bliss independence): log10(both agents) - log10(obinutuzumab alone) - log10(anti-cancer agent alone)” value (“effect … - log10(anti-cancer agent alone)” for short) [2] of the same molecule?
**A.** −0.10

**Q.** What about the CD20 expression [3] of the same molecule?
**A.** enhances CD20 expression

**Q.** For `O=P1(N(CCCl)CCCl)NC(OO)CCO1` (centres unmarked) [4-hydroperoxycyclophosphamide], which “effect … - log10(anti-cancer agent alone)” value [2] is on record?
**A.** 0.02

**Q.** What about the “effect of combined use with obinutuzumab, in words” value ([4]; all tolerant clones, combined with obinutuzumab 1 μg/mL, four days) of the same molecule?
**A.** approximately additive effects

**Q.** What about the “effect … - log10(anti-cancer agent alone)” value [5] of the same molecule?
**A.** −0.03

**Q.** And the “effect … - log10(anti-cancer agent alone)” value [6]?
**A.** 0.00

**Q.** For `CC[C@]1(O)C[C@H]2CN(CCc3c([nH]c4ccccc34)[C@@](C(=O)OC)(c3cc4c(cc3OC)N(C=O)[C@H]3[C@@](O)(C(=O)OC)[C@H](OC(C)=O)[C@]5(CC)C=CCN6CC[C@]43[C@@H]65)C2)C1` [vincristine], which “effect … - log10(anti-cancer agent alone)” value [2] is on record?
**A.** −0.10

**Q.** And the “effect … - log10(anti-cancer agent alone)” value [5]?
**A.** −0.35

**Q.** Which “cell proliferation ratio with pan caspase inhibitor” value ([5]; Z-VAD-FMK 40 μM added to obinutuzumab 0.1, 1 μg/mL + doxorubicin 10 nM, FIG. 8) does the source give for `COC(=O)C[C@H](NC(=O)[C@H](C)NC(=O)[C@@H](NC(=O)OCc1ccccc1)C(C)C)C(=O)CF` [Z-VAD-FMK] (Cbz-Val-Ala-Asp(OMe)-CH2F) here?
**A.** suppressed the doxorubicin-enhanced inhibitory activity of obinutuzumab on cell proliferation

**Q.** What about the “DNA fragmentation (TUNEL) induced by obinutuzumab and doxorubicin, with pan caspase inhibitor” value [7] of the same molecule?
**A.** suppressed

**Q.** With “obinutuzumab: glycoengineered, genetically recombinant humanized anti-CD20 monoclonal antibody, type II anti-CD20 antibody” as the molecule, how does the “ADCC sensitivity of ADCC-tolerant cell lines compared with the parent cell line” value ([1]; obinutuzumab 0.0001-100 ng/mL, four hours, FIG. 9) read?
**A.** significant reduction in ADCC sensitivity

**Q.** And the “obinutuzumab concentration for 50% cell proliferation inhibition” value [4]?
**A.** at least 200 μg/mL

**Q.** What about the “obinutuzumab concentration for 50% cell proliferation inhibition” value [8] of the same molecule?
**A.** 0.037 µg/mL
